Where two headings read alike, the source gives them in different places.
How the values were obtained:
HL-60(TB) = test: cells; conditions: Homo sapiens; for GI50: HL-60; for CC50: HL-60, read-out: LC50
OVCAR-3 = test: cells; conditions: Homo sapiens; for GI50: OVCAR-3; for CC50: OVCAR-3, read-out: LC50
RPMI-8226 = test: NCI growth inhibition and cytotoxicity screen, Leukemia panel; conditions: Homo sapiens; for GI50: RPMI-8226; for CC50: RPMI-8226, read-out: LC50
SR = test: as above; conditions: Homo sapiens
M14 = test: NCI growth inhibition and cytotoxicity screen, Melanoma panel; conditions: Homo sapiens; for GI50: M14; for CC50: M14, read-out: LC50
MDA-MB-435 = test: as above; conditions: Homo sapiens; for GI50: MDA-MB-435; for CC50: MDA-MB-435, read-out: LC50
SK-MEL-28 = test: as above; conditions: Homo sapiens; for GI50: SK-MEL-28; for CC50: SK-MEL-28, read-out: LC50
UACC-62 = test: as above; conditions: Homo sapiens; for GI50: UACC-62; for CC50: UACC-62, read-out: LC50
SF-268 = test: NCI growth inhibition and cytotoxicity screen, CNS Cancer panel; conditions: Homo sapiens; for GI50: SF-268; for CC50: SF-268, read-out: LC50
A549/ATCC = test: NCI growth inhibition and cytotoxicity screen, Lung Cancer panel; conditions: Homo sapiens; for GI50: A549; for CC50: A549, read-out: LC50
HOP-62 = test: as above; conditions: Homo sapiens; for GI50: HOP-62; for CC50: HOP-62, read-out: LC50
HOP-92 = test: as above; conditions: Homo sapiens; for GI50: HOP-92; for CC50: HOP-92, read-out: LC50
NCI-H460 = test: as above; conditions: Homo sapiens; for GI50: NCI-H460; for CC50: NCI-H460, read-out: LC50
COLO 205 = test: NCI growth inhibition and cytotoxicity screen, Colon Cancer panel; conditions: Homo sapiens; for GI50: COLO 205; for CC50: COLO 205, read-out: LC50
HCT-116 = test: as above; conditions: Homo sapiens; for GI50: HCT-116; for CC50: HCT-116, read-out: LC50
HT29 = test: as above; conditions: Homo sapiens; for GI50: HT-29; for CC50: HT-29, read-out: LC50
786-0 = test: NCI growth inhibition and cytotoxicity screen, Renal Cancer panel; conditions: Homo sapiens; for GI50: 786-0; for CC50: 786-0, read-out: LC50
A498 = test: as above; conditions: Homo sapiens; for GI50: A498; for CC50: A498, read-out: LC50
RXF 393 = test: as above; conditions: Homo sapiens; for GI50: RXF 393; for CC50: RXF 393, read-out: LC50
TK-10 = test: as above; conditions: Homo sapiens; for GI50: TK-10; for CC50: TK-10, read-out: LC50
UO-31 = test: as above; conditions: Homo sapiens; for GI50: UO-31; for CC50: UO-31, read-out: LC50
BT-549 = test: NCI growth inhibition and cytotoxicity screen, Breast Cancer panel; conditions: Homo sapiens; for GI50: BT-549; for CC50: BT-549, read-out: LC50
T-47D = test: as above; conditions: Homo sapiens, T47D; for CC50: read-out: LC50
IGROV1 = test: NCI growth inhibition and cytotoxicity screen, Ovarian Cancer panel; conditions: Homo sapiens; for GI50: IGROV-1; for CC50: IGROV-1, read-out: LC50
OVCAR-8 = test: as above; conditions: Homo sapiens; for GI50: OVCAR-8; for CC50: OVCAR-8, read-out: LC50
NCI/ADR-RES = test: as above; conditions: Homo sapiens; for CC50: read-out: LC50
DU-145 = test: NCI growth inhibition and cytotoxicity screen, Prostate Cancer panel; conditions: Homo sapiens; for GI50: DU-145; for CC50: DU-145, read-out: LC50
[1] = system: full panel of 60 different cancer cell lines; test: NCI five dose screen, full panel summary; assay type: cell-based, human; conditions: for GI50: Homo sapiens

COc1cc(/C(C#N)=C\c2cc3ccccc3s2)cc(OC)c1OC [Formula (I)(a)]
GI50 (HL-60(TB)): < 10 nM | CC50 (HL-60(TB)): > 100000 nM | GI50 (OVCAR-3): < 10 nM | CC50 (OVCAR-3): > 100000 nM | GI50 (RPMI-8226): < 10 nM | CC50 (RPMI-8226): > 100000 nM | GI50 (SR): < 10 nM | CC50 (SR; read-out: LC50): > 100000 nM | GI50 (M14): < 10 nM | CC50 (M14): > 100000 nM | GI50 (MDA-MB-435): < 10 nM | CC50 (MDA-MB-435): > 100000 nM | GI50 (SK-MEL-28): < 10 nM | CC50 (SK-MEL-28): > 100000 nM | GI50 (UACC-62): < 10 nM | CC50 (UACC-62): > 100000 nM | GI50 (SF-268): < 10 nM | CC50 (SF-268): > 100000 nM | GI50 (A549/ATCC): < 10 nM | CC50 (A549/ATCC): > 100000 nM | GI50 (HOP-62): < 10 nM | CC50 (HOP-62): > 100000 nM | GI50 (HOP-92): < 10 nM | CC50 (HOP-92): > 100000 nM | GI50 (NCI-H460): < 10 nM | CC50 (NCI-H460): > 100000 nM | GI50 (COLO 205): < 10 nM | CC50 (COLO 205): 250 nM | GI50 (HCT-116): < 10 nM | CC50 (HCT-116): > 100000 nM | GI50 (HT29): < 10 nM | CC50 (HT29): > 100000 nM | GI50 (786-0): < 10 nM | CC50 (786-0): > 100000 nM | GI50 (A498): < 10 nM | CC50 (A498): > 100000 nM | GI50 (RXF 393): < 10 nM | CC50 (RXF 393): > 100000 nM | GI50 (TK-10): < 10 nM | CC50 (TK-10): > 100000 nM | GI50 (UO-31): < 10 nM | CC50 (UO-31): > 100000 nM | GI50 (BT-549): < 10 nM | CC50 (BT-549): > 100000 nM | GI50 (T-47D): < 10 nM | CC50 (T-47D): > 100000 nM | GI50 (IGROV1): < 10 nM | CC50 (IGROV1): > 100000 nM | GI50 (OVCAR-8): < 10 nM | CC50 (OVCAR-8): > 100000 nM | GI50 (NCI/ADR-RES): < 10 nM | CC50 (NCI/ADR-RES): > 100000 nM | GI50 (DU-145): < 10 nM | CC50 (DU-145): > 100000 nM

COc1cc(OC)cc(/C(C#N)=C/c2ccc3ccccc3n2)c1 [PNR-4-84, (Z)-2-(3,5-dimethoxyphenyl)-3-(quinolin-2-yl)acrylonitrile]
GI50 ([1]; range over the potently inhibited cell lines, read-out: GI50 ranging (potently inhibited cancer cell lines)): 94 to 983 nM | GI50 ([1]; read-out: average GI50 value on all the cancer cell lines): 490 nM | potent growth inhibition on % of the cancer cell lines ([1]; share of the cancer cell lines potently inhibited): 86% | GI50 (HL-60(TB)): 270 nM | CC50 (HL-60(TB)): > 100000 nM | GI50 (OVCAR-3): 309 nM | CC50 (OVCAR-3): 34000 nM | GI50 (RPMI-8226): 433 nM | CC50 (RPMI-8226): > 100000 nM | GI50 (M14): 360 nM | CC50 (M14): > 100000 nM | GI50 (MDA-MB-435): 147 nM | CC50 (MDA-MB-435): > 100000 nM | GI50 (SK-MEL-28): 896 nM | CC50 (SK-MEL-28): > 100000 nM | GI50 (UACC-62): 449 nM | CC50 (UACC-62): > 100000 nM | GI50 (SF-268): 476 nM | CC50 (SF-268): > 100000 nM | GI50 (A549/ATCC): 649 nM | CC50 (A549/ATCC): > 100000 nM | GI50 (HOP-62): 959 nM | CC50 (HOP-62): > 100000 nM | GI50 (HOP-92): 542 nM | CC50 (HOP-92): > 100000 nM | GI50 (NCI-H460): 339 nM | CC50 (NCI-H460): > 100000 nM | GI50 (COLO 205): 374 nM | CC50 (COLO 205): > 100000 nM | GI50 (HCT-116): 416 nM | CC50 (HCT-116): 47300 nM | GI50 (HT29): 367 nM | CC50 (HT29): > 100000 nM | GI50 (786-0): 501 nM | CC50 (786-0): > 100000 nM | GI50 (A498): 275 nM | CC50 (A498): > 100000 nM | GI50 (RXF 393): 334 nM | CC50 (RXF 393): > 100000 nM | GI50 (TK-10): 3280 nM | CC50 (TK-10): > 100000 nM | GI50 (UO-31): 573 nM | CC50 (UO-31): > 100000 nM | GI50 (BT-549): 342 nM | CC50 (BT-549): 80600 nM | GI50 (T-47D): 1230 nM | CC50 (T-47D): > 100000 nM | GI50 (IGROV1): 958 nM | CC50 (IGROV1): > 100000 nM | GI50 (OVCAR-8): 659 nM | CC50 (OVCAR-8): > 100000 nM | GI50 (NCI/ADR-RES): 283 nM | CC50 (NCI/ADR-RES): > 100000 nM | GI50 (DU-145): 801 nM | CC50 (DU-145): > 100000 nM

Reference: patent US9884842B2, “Combretastatin analogs” (The Board of Trustees of the University of Arkansas, priority 2013, dated 2018)
